In patent US6156700A, “3-(1,2-Benzisothiazol- and isoxazol-5-yl)-2,4(1H,3H)-pyrimidinedione or thione and 3-(1,2-benzisothiazol- and isoxazol-5-yl)-4(3H)-pyrimidinone or thione herbicidal agents” (American Cyanmid Company, priority 1998, dated 2000):

What was measured:
IPOSS [1] = assay: Postemergence herbicidal evaluation; type: in vivo
ORYSAT = assay: Preemergence herbicidal evaluation; type: in vivo, Oryza sativa; design: scale not given here
SETVI [2] = assay: Postemergence herbicidal evaluation; type: in vivo
CASOB [3] = assay: Postemergence herbicidal evaluation; type: in vivo
GLXMA [4] = assay: Postemergence herbicidal evaluation; type: in vivo
GALAP [5] = assay: Preemergence herbicidal evaluation; type: in vivo; design: scale not given here
TRZAWR [6] = assay: Preemergence herbicidal evaluation; type: in vivo; design: scale not given here
IPOSS [7] = assay: Preemergence herbicidal evaluation; type: in vivo; design: scale not given here
AMBEL = assay: Preemergence herbicidal evaluation; type: in vivo; design: scale not given here
SETVI [8] = assay: Preemergence herbicidal evaluation; type: in vivo; design: scale not given here
ABUTH [9] = assay: Preemergence herbicidal evaluation; type: in vivo; design: scale not given here
CASOB [10] = assay: Preemergence herbicidal evaluation; type: in vivo; design: scale not given here
CHEAL [11] = assay: Preemergence herbicidal evaluation; type: in vivo; design: scale not given here
ECHCG [12] = assay: Preemergence herbicidal evaluation; type: in vivo; design: scale not given here
ZEAMX [13] = assay: Preemergence herbicidal evaluation; type: in vivo; design: scale not given here
CHEAL [14] = assay: Postemergence herbicidal evaluation; type: in vivo
GLXMA [15] = assay: Preemergence herbicidal evaluation; type: in vivo
Method: The preemergence and postemergence herbicidal properties of certain compounds of the present invention are compared with certain compounds disclosed in U.S. Pat. Nos. 5,484,763 and 5,523,278. The evaluations are performed as described in Examples 185 and 186. Data in Tables V and VI are reported by the compound number given in Example 185 for the compounds of this invention or by comparative compound letter for the compounds disclosed in U.S. Pat. Nos. 5,484,763 and 5,523,278.

TRZAWR [16] = assay: Postemergence herbicidal evaluation; type: in vivo
ABUTH [17] = assay: Postemergence herbicidal evaluation; type: in vivo
GALAP [18] = assay: Postemergence herbicidal evaluation; type: in vivo
ECHCG [19] = assay: Postemergence herbicidal evaluation; type: in vivo
ZEAMX [20] = assay: Postemergence herbicidal evaluation; type: in vivo

## Cn1c(C(F)(F)F)cc(=O)n(-c2ccc3snc(-c4ccccc4)c3c2)c1=O [Compound 4, 1-Methyl-3-(3-phenyl-1,2-benzisothiazol-5-yl)-6-(trifluoromethyl)-2,4(1H,3H)-pyrimidinedione]
IPOSS [1]; 0.0313-0.0320 kg/ha
  herbicidal effect rating: 7.0
IPOSS [1]; 0.0625-0.0640 kg/ha
  herbicidal effect rating: 9.0
IPOSS [1]; 0.1250 kg/ha
  herbicidal effect rating: 9.0
IPOSS [1]; 0.2500 kg/ha
  herbicidal effect rating: 9.0
IPOSS [1]; 0.5000 kg/ha
  herbicidal effect rating: 9.0
ORYSAT; 0.0313-0.0320 kg/ha
  herbicidal effect rating: 7.0
ORYSAT; 0.0620-0.0630 kg/ha
  herbicidal effect rating: 7.0
ORYSAT; 0.1250 kg/ha
  herbicidal effect rating: 7.0
ORYSAT; 0.2500 kg/ha
  herbicidal effect rating: 7.0
ORYSAT; 0.5000 kg/ha
  herbicidal effect rating: 7.0
SETVI [2]; 0.0157-0.0160 kg/ha
  herbicidal effect rating: 8.0
SETVI [2]; 0.0313-0.0320 kg/ha
  herbicidal effect rating: 9.0
SETVI [2]; 0.0625-0.0640 kg/ha
  herbicidal effect rating: 9.0
SETVI [2]; 0.1250 kg/ha
  herbicidal effect rating: 9.0
SETVI [2]; 0.2500 kg/ha
  herbicidal effect rating: 9.0
SETVI [2]; 0.5000 kg/ha
  herbicidal effect rating: 9.0
CASOB [3]; 0.0157-0.0160 kg/ha
  herbicidal effect rating: 7.0
CASOB [3]; 0.0313-0.0320 kg/ha
  herbicidal effect rating: 7.0
CASOB [3]; 0.0625-0.0640 kg/ha
  herbicidal effect rating: 9.0
CASOB [3]; 0.1250 kg/ha
  herbicidal effect rating: 9.0
CASOB [3]; 0.2500 kg/ha
  herbicidal effect rating: 9.0
CASOB [3]; 0.5000 kg/ha
  herbicidal effect rating: 9.0
GLXMA [4]; 0.0157-0.0160 kg/ha
  herbicidal effect rating: 6.0
GLXMA [4]; 0.0313-0.0320 kg/ha
  herbicidal effect rating: 5.0
GLXMA [4]; 0.0625-0.0640 kg/ha
  herbicidal effect rating: 4.0
GLXMA [4]; 0.1250 kg/ha
  herbicidal effect rating: 7.0
GLXMA [4]; 0.2500 kg/ha
  herbicidal effect rating: 9.0
GLXMA [4]; 0.5000 kg/ha
  herbicidal effect rating: 9.0
GALAP [5]; 0.0313-0.0320 kg/ha
  herbicidal effect rating: 9.0
GALAP [5]; 0.0620-0.0630 kg/ha
  herbicidal effect rating: 9.0
GALAP [5]; 0.1250 kg/ha
  herbicidal effect rating: 6.0
GALAP [5]; 0.2500 kg/ha
  herbicidal effect rating: 9.0
GALAP [5]; 0.5000 kg/ha
  herbicidal effect rating: 9.0
TRZAWR [6]; 0.0313-0.0320 kg/ha
  herbicidal effect rating: 2.0
TRZAWR [6]; 0.0620-0.0630 kg/ha
  herbicidal effect rating: 5.0
TRZAWR [6]; 0.1250 kg/ha
  herbicidal effect rating: 7.0
TRZAWR [6]; 0.2500 kg/ha
  herbicidal effect rating: 7.0
TRZAWR [6]; 0.5000 kg/ha
  herbicidal effect rating: 7.0
IPOSS [7]; 0.0313-0.0320 kg/ha
  herbicidal effect rating: 2.0
IPOSS [7]; 0.0620-0.0630 kg/ha
  herbicidal effect rating: 4.0
IPOSS [7]; 0.1250 kg/ha
  herbicidal effect rating: 7.0
IPOSS [7]; 0.2500 kg/ha
  herbicidal effect rating: 9.0
IPOSS [7]; 0.5000 kg/ha
  herbicidal effect rating: 9.0
AMBEL; 0.0313-0.0320 kg/ha
  herbicidal effect rating: 7.0
AMBEL; 0.0620-0.0630 kg/ha
  herbicidal effect rating: 7.0
AMBEL; 0.1250 kg/ha
  herbicidal effect rating: 9.0
AMBEL; 0.2500 kg/ha
  herbicidal effect rating: 9.0
AMBEL; 0.5000 kg/ha
  herbicidal effect rating: 9.0
SETVI [8]; 0.0313-0.0320 kg/ha
  herbicidal effect rating: 9.0
SETVI [8]; 0.0620-0.0630 kg/ha
  herbicidal effect rating: 9.0
SETVI [8]; 0.1250 kg/ha
  herbicidal effect rating: 9.0
SETVI [8]; 0.2500 kg/ha
  herbicidal effect rating: 9.0
SETVI [8]; 0.5000 kg/ha
  herbicidal effect rating: 9.0
ABUTH [9]; 0.0313-0.0320 kg/ha
  herbicidal effect rating: 9.0
ABUTH [9]; 0.0620-0.0630 kg/ha
  herbicidal effect rating: 9.0
ABUTH [9]; 0.1250 kg/ha
  herbicidal effect rating: 9.0
ABUTH [9]; 0.2500 kg/ha
  herbicidal effect rating: 9.0
ABUTH [9]; 0.5000 kg/ha
  herbicidal effect rating: 9.0
CASOB [10]; 0.0313-0.0320 kg/ha
  herbicidal effect rating: 7.0
CASOB [10]; 0.0620-0.0630 kg/ha
  herbicidal effect rating: 7.0
CASOB [10]; 0.1250 kg/ha
  herbicidal effect rating: 6.0
CASOB [10]; 0.2500 kg/ha
  herbicidal effect rating: 9.0
CASOB [10]; 0.5000 kg/ha
  herbicidal effect rating: 9.0
CHEAL [11]; 0.0313-0.0320 kg/ha
  herbicidal effect rating: 9.0
CHEAL [11]; 0.0620-0.0630 kg/ha
  herbicidal effect rating: 9.0
CHEAL [11]; 0.1250 kg/ha
  herbicidal effect rating: 9.0
CHEAL [11]; 0.2500 kg/ha
  herbicidal effect rating: 9.0
CHEAL [11]; 0.5000 kg/ha
  herbicidal effect rating: 9.0
ECHCG [12]; 0.0313-0.0320 kg/ha
  herbicidal effect rating: 9.0
ECHCG [12]; 0.0620-0.0630 kg/ha
  herbicidal effect rating: 9.0
ECHCG [12]; 0.1250 kg/ha
  herbicidal effect rating: 9.0
ECHCG [12]; 0.2500 kg/ha
  herbicidal effect rating: 9.0
ECHCG [12]; 0.5000 kg/ha
  herbicidal effect rating: 9.0
ZEAMX [13]; 0.0313-0.0320 kg/ha
  herbicidal effect rating: 3.0
ZEAMX [13]; 0.0620-0.0630 kg/ha
  herbicidal effect rating: 7.0
ZEAMX [13]; 0.1250 kg/ha
  herbicidal effect rating: 7.0
ZEAMX [13]; 0.2500 kg/ha
  herbicidal effect rating: 7.0
ZEAMX [13]; 0.5000 kg/ha
  herbicidal effect rating: 7.0
CHEAL [14]; 0.0157-0.0160 kg/ha
  herbicidal effect rating: 9.0
CHEAL [14]; 0.0313-0.0320 kg/ha
  herbicidal effect rating: 9.0
CHEAL [14]; 0.0625-0.0640 kg/ha
  herbicidal effect rating: 9.0
CHEAL [14]; 0.1250 kg/ha
  herbicidal effect rating: 9.0
CHEAL [14]; 0.2500 kg/ha
  herbicidal effect rating: 9.0
CHEAL [14]; 0.5000 kg/ha
  herbicidal effect rating: 9.0
GLXMA [15]; 0.0313-0.0320 kg/ha
  herbicidal effect rating: 3.0
GLXMA [15]; 0.0620-0.0630 kg/ha
  herbicidal effect rating: 9.0
GLXMA [15]; 0.1250 kg/ha
  herbicidal effect rating: 9.0
GLXMA [15]; 0.2500 kg/ha
  herbicidal effect rating: 7.0
GLXMA [15]; 0.5000 kg/ha
  herbicidal effect rating: 9.0
TRZAWR [16]; 0.0157-0.0160 kg/ha
  herbicidal effect rating: 2.0
TRZAWR [16]; 0.0313-0.0320 kg/ha
  herbicidal effect rating: 2.0
TRZAWR [16]; 0.0625-0.0640 kg/ha
  herbicidal effect rating: 3.0
TRZAWR [16]; 0.1250 kg/ha
  herbicidal effect rating: 3.0
TRZAWR [16]; 0.2500 kg/ha
  herbicidal effect rating: 3.0
TRZAWR [16]; 0.5000 kg/ha
  herbicidal effect rating: 4.0
ABUTH [17]; 0.0157-0.0160 kg/ha
  herbicidal effect rating: 9.0
ABUTH [17]; 0.0313-0.0320 kg/ha
  herbicidal effect rating: 9.0
ABUTH [17]; 0.0625-0.0640 kg/ha
  herbicidal effect rating: 9.0
ABUTH [17]; 0.1250 kg/ha
  herbicidal effect rating: 9.0
ABUTH [17]; 0.2500 kg/ha
  herbicidal effect rating: 9.0
ABUTH [17]; 0.5000 kg/ha
  herbicidal effect rating: 9.0
GALAP [18]; 0.0157-0.0160 kg/ha
  herbicidal effect rating: 4.0
GALAP [18]; 0.0313-0.0320 kg/ha
  herbicidal effect rating: 9.0
GALAP [18]; 0.0625-0.0640 kg/ha
  herbicidal effect rating: 9.0
GALAP [18]; 0.1250 kg/ha
  herbicidal effect rating: 9.0
GALAP [18]; 0.2500 kg/ha
  herbicidal effect rating: 9.0
GALAP [18]; 0.5000 kg/ha
  herbicidal effect rating: 9.0
ECHCG [19]; 0.0157-0.0160 kg/ha
  herbicidal effect rating: 2.0
ECHCG [19]; 0.0313-0.0320 kg/ha
  herbicidal effect rating: 5.0
ECHCG [19]; 0.0625-0.0640 kg/ha
  herbicidal effect rating: 7.0
ECHCG [19]; 0.1250 kg/ha
  herbicidal effect rating: 8.0
ECHCG [19]; 0.2500 kg/ha
  herbicidal effect rating: 8.0
ECHCG [19]; 0.5000 kg/ha
  herbicidal effect rating: 9.0
ZEAMX [20]; 0.0157-0.0160 kg/ha
  herbicidal effect rating: 2.0
ZEAMX [20]; 0.0313-0.0320 kg/ha
  herbicidal effect rating: 2.0
ZEAMX [20]; 0.0625-0.0640 kg/ha
  herbicidal effect rating: 3.0
ZEAMX [20]; 0.1250 kg/ha
  herbicidal effect rating: 3.0
ZEAMX [20]; 0.2500 kg/ha
  herbicidal effect rating: 3.0
ZEAMX [20]; 0.5000 kg/ha
  herbicidal effect rating: 3.0
